In ChEMBL document CHEMBL1201862, “PubChem BioAssay data set” (2004):
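Assay format: 96-well plates, 48-hour exposure. The concentration for 50% growth inhibition is given as GI50.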 Calls of active or inactive are those of the source. Cut-off read from the data, not from the text of the source: active = GI50 up to about 1.1 µM and inactive = higher. Where a SMILES comes first, the peptide text is derived from it. The star is where a group is joined. Cbz = O=C(OCc1ccccc1)*; NHNH2 = NN*

Columns and labels:
Test in all cases: NCI tumour cell line growth inhibition, 48 h
EKVX = system: EKVX
RXF 393 = system: RXF 393
CAKI-1 = system: CAKI-1
SF-539 = system: SF-539
SK-MEL-5 = system: SK-MEL-5
HOP-62 = system: HOP-62
IGROV-1 = system: IGROV-1
K562 = system: K562
RPMI-8226 = system: RPMI-8226
NCI-H23 = system: NCI-H23
SNB-19 = system: SNB-19
CCRF-CEM = system: CCRF-CEM
SK-OV-3 = system: SK-OV-3
OVCAR-3 = system: OVCAR-3
KM12 = system: KM12
A549 = system: A549
UACC-62 = system: UACC-62
Malme-3M = system: Malme-3M
SR = system: SR

Row | Structure (SMILES) | GI50 (EKVX) | GI50 (RXF 393) | GI50 (CAKI-1) | GI50 (SF-539) | GI50 (SK-MEL-5) | GI50 (HOP-62) | GI50 (IGROV-1) | GI50 (K562) | GI50 (RPMI-8226) | GI50 (NCI-H23) | GI50 (SNB-19) | GI50 (CCRF-CEM) | GI50 (SK-OV-3) | GI50 (OVCAR-3) | GI50 (KM12) | GI50 (A549) | GI50 (UACC-62) | GI50 (Malme-3M) | GI50 (SR)
1 | COC(=O)/C=C1\CCC(C)O1 (configuration not stated) | > 100 µM (inactive) | > 100 µM (inactive) | > 100 µM (inactive) | > 100 µM (inactive) | > 100 µM (inactive) | > 100 µM (inactive) | > 100 µM (inactive) | > 100 µM (inactive) | > 100 µM (inactive) | > 100 µM (inactive) | > 100 µM (inactive) | > 100 µM (inactive) | > 100 µM (inactive) | > 100 µM (inactive) | > 100 µM (inactive) | > 100 µM (inactive) | > 100 µM (inactive) | > 100 µM (inactive) | 
2 | CC(=O)OC1COC(n2c(=S)n(-c3ccccc3)c(=O)c3cc(Br)ccc32)C(OC(C)=O)C1OC(C)=O (configuration not stated) | > 100 µM (inactive) | 22.2 µM (inactive) | 42 µM (inactive) | 22.4 µM (inactive) | 54.8 µM (inactive) | 19.5 µM (inactive) | 45.1 µM (inactive) | > 100 µM (inactive) | 33.9 µM (inactive) | 43.7 µM (inactive) | 25.2 µM (inactive) | > 100 µM (inactive) | 32.8 µM (inactive) | 73.3 µM (inactive) | > 100 µM (inactive) | 40.4 µM (inactive) | 37.3 µM (inactive) | 35.4 µM (inactive) | 
3 | Cn1cc(-c2ccc3c4ccccc4n(C)c3c2)c2ccccc21 | > 100 µM (inactive) | > 100 µM (inactive) | > 100 µM (inactive) | > 100 µM (inactive) | > 100 µM (inactive) | > 100 µM (inactive) | > 100 µM (inactive) | 67.9 µM (inactive) | > 100 µM (inactive) | > 100 µM (inactive) | > 100 µM (inactive) | > 100 µM (inactive) | > 100 µM (inactive) | > 100 µM (inactive) | 93.3 µM (inactive) | > 100 µM (inactive) | > 100 µM (inactive) | > 100 µM (inactive) | 
4 | CCCCC#COS(=O)(=O)c1ccc(C)cc1 | 56.6 µM (inactive) |  | > 100 µM (inactive) | > 100 µM (inactive) | > 100 µM (inactive) | > 100 µM (inactive) | > 100 µM (inactive) | 45.3 µM (inactive) | 46.2 µM (inactive) | 92.9 µM (inactive) | > 100 µM (inactive) | 30.5 µM (inactive) | 88.7 µM (inactive) | > 100 µM (inactive) | 84.9 µM (inactive) | 44.9 µM (inactive) | > 100 µM (inactive) | > 100 µM (inactive) | 53 µM (inactive)
5 | COC(OC)c1cccc2c1C(=O)CCC1(O)c3ccccc3C1C2 (configuration not stated) | > 100 µM (inactive) |  |  | > 100 µM (inactive) | > 100 µM (inactive) | > 100 µM (inactive) | > 100 µM (inactive) | 55.5 µM (inactive) | 12.2 µM (inactive) | 78.9 µM (inactive) | > 100 µM (inactive) | 44.9 µM (inactive) | > 100 µM (inactive) | 7.52 µM (inactive) | 74 µM (inactive) | > 100 µM (inactive) | > 100 µM (inactive) | > 100 µM (inactive) | > 100 µM (inactive)
6 | CC1(O)C(C)(O)C(C)(O)C1(C)O (configuration not stated) | > 100 µM (inactive) | > 100 µM (inactive) | > 100 µM (inactive) | > 100 µM (inactive) | > 100 µM (inactive) | > 100 µM (inactive) | > 100 µM (inactive) | > 100 µM (inactive) |  | > 100 µM (inactive) | > 100 µM (inactive) | > 100 µM (inactive) | > 100 µM (inactive) | > 100 µM (inactive) | > 100 µM (inactive) | > 100 µM (inactive) | > 100 µM (inactive) | > 100 µM (inactive) | 
7 | O=C1NC(=O)C(C(CC(=O)c2ccc(Cl)cc2)c2ccc(Cl)cc2)C(=O)N1 (configuration not stated) | 17.1 µM (inactive) |  |  | 18 µM (inactive) | > 100 µM (inactive) | > 100 µM (inactive) | > 100 µM (inactive) | > 100 µM (inactive) | 33.7 µM (inactive) | > 100 µM (inactive) | > 100 µM (inactive) | 42.2 µM (inactive) |  | 60.4 µM (inactive) | 37.8 µM (inactive) | > 100 µM (inactive) | > 100 µM (inactive) | 0.225 µM (active) | 35.2 µM (inactive)
8 | NCc1cccc(O)c1O | > 100 µM (inactive) | > 100 µM (inactive) | > 100 µM (inactive) |  | > 100 µM (inactive) | > 100 µM (inactive) |  | > 100 µM (inactive) | > 100 µM (inactive) |  | > 100 µM (inactive) | 55.3 µM (inactive) | > 100 µM (inactive) | > 100 µM (inactive) | > 100 µM (inactive) | > 100 µM (inactive) | > 100 µM (inactive) | > 100 µM (inactive) | > 100 µM (inactive)
9 | CCCCNC(=O)OCC(COc1ccccc1OC)OC(=O)NCCCC (configuration not stated) | > 100 µM (inactive) | > 100 µM (inactive) | > 100 µM (inactive) | > 100 µM (inactive) | 87.5 µM (inactive) | > 100 µM (inactive) | > 100 µM (inactive) | 68.5 µM (inactive) | 95.9 µM (inactive) | > 100 µM (inactive) | > 100 µM (inactive) | > 100 µM (inactive) | > 100 µM (inactive) | > 100 µM (inactive) | > 100 µM (inactive) | > 100 µM (inactive) | 89.9 µM (inactive) | > 100 µM (inactive) | 
10 | COc1ccc2c(C3(O)CCNCC3)c[nH]c2c1 | > 100 µM (inactive) | > 100 µM (inactive) | > 100 µM (inactive) | > 100 µM (inactive) | > 100 µM (inactive) | > 100 µM (inactive) | > 100 µM (inactive) | > 100 µM (inactive) | > 100 µM (inactive) | > 100 µM (inactive) | > 100 µM (inactive) | > 100 µM (inactive) | > 100 µM (inactive) | > 100 µM (inactive) | > 100 µM (inactive) | > 100 µM (inactive) | > 100 µM (inactive) | > 100 µM (inactive) | 
11 | CCOc1ccc(NC(=O)/C(=C\c2ccc(C)cc2)C(C)=O)cc1 | > 100 µM (inactive) |  | > 100 µM (inactive) | > 100 µM (inactive) | > 100 µM (inactive) | > 100 µM (inactive) | > 100 µM (inactive) | > 100 µM (inactive) | > 100 µM (inactive) | > 100 µM (inactive) | > 100 µM (inactive) | > 100 µM (inactive) | > 100 µM (inactive) | > 100 µM (inactive) |  | > 100 µM (inactive) | > 100 µM (inactive) | > 100 µM (inactive) | < 0.01 µM (active)
12 | CCOC(=O)CSc1cc[nH]c(=O)n1 | > 100 µM (inactive) | 31.6 µM (inactive) | > 100 µM (inactive) | > 100 µM (inactive) | > 100 µM (inactive) |  | > 100 µM (inactive) | > 100 µM (inactive) | > 100 µM (inactive) |  | > 100 µM (inactive) | > 100 µM (inactive) | > 100 µM (inactive) | > 100 µM (inactive) | > 100 µM (inactive) | > 100 µM (inactive) | > 100 µM (inactive) | > 100 µM (inactive) | 
13 | Cc1cccc(NC(=O)/C=C/c2ccc(N(CCC#N)CCC#N)cc2C)c1 | > 100 µM (inactive) |  | > 100 µM (inactive) | > 100 µM (inactive) | > 100 µM (inactive) | > 100 µM (inactive) | > 100 µM (inactive) | 16.8 µM (inactive) | > 100 µM (inactive) | > 100 µM (inactive) | > 100 µM (inactive) | 33 µM (inactive) | > 100 µM (inactive) | > 100 µM (inactive) | > 100 µM (inactive) | > 100 µM (inactive) | 28 µM (inactive) | > 100 µM (inactive) | 
14 | CC1CC(=O)C2CC(CO)=CCCC2C1(C)CC/C(=C/CO)CO (configuration not stated) | > 100 µM (inactive) | > 100 µM (inactive) | > 100 µM (inactive) |  | > 100 µM (inactive) |  | > 100 µM (inactive) | > 100 µM (inactive) | > 100 µM (inactive) | > 100 µM (inactive) |  | > 100 µM (inactive) | > 100 µM (inactive) | > 100 µM (inactive) | > 100 µM (inactive) | > 100 µM (inactive) | > 100 µM (inactive) | > 100 µM (inactive) | 
15 | COc1ccc(C2=C(OC(=O)N(C)C)c3cccn3-c3cc(Cl)ccc3S2)cc1 | > 10 µM (inactive) | > 10 µM (inactive) | > 10 µM (inactive) |  | > 10 µM (inactive) | > 10 µM (inactive) | > 10 µM (inactive) | 8.91 µM (inactive) | 2.73 µM (inactive) | > 10 µM (inactive) |  | 8.07 µM (inactive) | > 10 µM (inactive) |  | > 10 µM (inactive) | > 10 µM (inactive) | > 10 µM (inactive) | > 10 µM (inactive) | 6.38 µM (inactive)
16 | CCOC(=O)CCC(NC(=O)OCc1ccccc1)C(=O)NC(CCC(=O)OCC)C(=O)NN (configuration not stated) (Cbz-Glu(OEt)-Glu(OEt)-NHNH2; configuration not given here) | > 100 µM (inactive) |  |  |  | > 100 µM (inactive) | > 100 µM (inactive) | > 100 µM (inactive) | > 100 µM (inactive) | > 100 µM (inactive) |  | > 100 µM (inactive) |  |  |  | > 100 µM (inactive) | > 100 µM (inactive) | > 100 µM (inactive) | > 100 µM (inactive) | > 100 µM (inactive)
